Data on five molecules can be found in patent US8529951B1, “Elastogenic cues and methods for using same” (priority 2007, dated 2013).

Assay [1] relates to lysyl oxidase (LOX). Nature of the assay: LOX protein synthesis (Western blot of spent medium). Conditions: Example 3, 16 day culture, alone or together with HA fragments.
Assay [2] deals with RASMCs. Nature of the assay: Matrix elastin synthesis by RASMCs (Fastin assay; alkali-soluble and alkali-insoluble fractions). Conditions: for increase of total matrix production: Example 3, growth factor only (no HA), 3 weeks.
Assay [3] relates to RASMCs. Nature of the assay: Collagen synthesis by RASMCs (hydroxy-proline assay). The class given is cell-based, rat.
Assay [4] concerns RASMCs. Nature of the assay: RASMC proliferation (fluorometric DNA assay of cell layers). Type of assay: cell-based, rat. How it is done: At 1 and 21 days of culture, the DNA content of the cell layers was measured to determine the proliferation of SMCs and to normalize the measured amounts of synthesized matrix (elastin, collagen). The fluorometric DNA assay, described previously by Labarca and Paigen (Labarca C, Paigen K. A simple, rapid, and sensitive DNA assay procedure. Anal Biochem. 1980; 102:344-52), was performed on cell layers processed as described previously (Joddar B, Ramamurthi A. Fragment size- and dose-specific effects of hyaluronan on matrix synthesis by vascular smooth muscle cells. Biomaterials. 2006; 27(15): 2994-3004). Actual cell counts were then calculated on the basis of an estimated 6 pg DNA/cell.

Assay [5] deals with T1, lysyl oxidase (LOX) (Rattus norvegicus, UniProt P16636).
T1 construct: spent culture medium pooled at day 21 of a culture was assayed; endogenous in cells; host or cells: adult rat aortic smooth muscle cells (RASMCs; Cell Applications), spent culture medium
T1 sequence (P16636 163-411): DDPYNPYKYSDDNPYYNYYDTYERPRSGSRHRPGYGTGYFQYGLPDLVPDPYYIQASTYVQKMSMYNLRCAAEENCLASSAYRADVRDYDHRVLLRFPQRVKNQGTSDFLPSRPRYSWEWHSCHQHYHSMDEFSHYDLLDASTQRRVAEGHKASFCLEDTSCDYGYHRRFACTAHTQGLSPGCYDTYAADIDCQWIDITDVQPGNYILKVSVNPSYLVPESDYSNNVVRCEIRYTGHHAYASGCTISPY
Nature of the assay: LOX functional activity (fluorometric Amplex red assay of spent medium). Type of assay: cell-based. Conditions: 21 days. The procedure: To determine LOX functional activity, spent culture medium pooled at day 21 of a culture was assayed using a fluorometric assay based on generation of H2O2 when LOX acts on a synthetic substrate. H2O2 was detected using an Amplex® red kit (Molecular Probes, OR,). The fluorescence intensities were recorded with excitation and emission wavelengths at 560 nm and 590 nm, respectively

Assay [6] deals with RASMCs. Nature of the assay: Elastase degradation of elastin isolated from cultured cell layers. The class given is cell-based, rat. Conditions: 8-hour enzymatic digestion. How it is done: Enzymatic degradation studies were performed to compare the impact of HA oligomer exposure and their mode of delivery on elastin matrix quality, particularly their resistance to enzymatic breakdown. Elastin matrices isolated by alkali digestion of aortae explanted from adult Sprague-Dawley rats served as additional controls for these studies. Briefly, adult rat aortal segments were removed from euthanized rats, from arch to the celiac axis, under sterile conditions, and spliced lengthwise in petri dishes containing cold phosphate-buffered saline (PBS) containing 2 mM Ca^2+. These spliced sections were then transferred to a dish containing 1-2 ml of collagenase (2 mg/ml; Worthington, Lakewood, N.J.) and incubated for 10 minutes at 37° C. DMEM:F12 media was then added to these collagenase treated samples and mixed well with gentle pipetting. Isolated aortal segments were further chopped crosswise into […] pieces and transferred using fine needles onto sterile petri dishes and stored in PBS at 4° C. until further use. Cell layers were scraped off the culture wells, pelleted by centrifugation (2000 g, 15 min), and stored at −20° C. in PBS until further use (n=9/case).
HA tetramers as described above in Example 1 were tethered onto 4-well glass chamber slides (Nalge Nunc International, Naperville, Ill.). […]

In assay [7] the test system is RASMCs. Put plainly: SDS-PAGE/Western blot of soluble tropoelastin in spent medium. The class given is cell-based, rat. Conditions: Example 1, n=3/case. How it is done:
SDS-PAGE and Western Blot were performed to confirm the observed biochemical trends for synthesis of soluble tropoelastin. Briefly, the aliquots of spent medium removed and pooled at bi-weekly intervals over the 21-day culture period, were lyophilized, assayed for protein content using a DC protein assay kit (Biorad Corporation, Hercules, Calif.), and subjected to SDS-PAGE and Western Blot. Optimized sample amounts (20 μg) were appropriately mixed and boiled (100° C., 5 min) with a loading buffer (2% w/v Sodium Dodecyl Sulfate (SDS), 62 mM Trizma base, 10% v/v Glycerol, 600 mM dithiothreitol), flash-spun in an ultracentrifuge (500 g, 2 min) and loaded under reduced conditions onto 10% w/v polyacrylamide gels (Novex Tris-Glycine gels, Invitrogen Corporation, Carlsbad, Calif.), with prestained protein standards ranging between 10-190 kDa (Benchmark Pre-stained Protein Ladder, Invitrogen) and western blot standards ranging between 20-220 kDa (MagicMark XP Western Protein Standards, Invitrogen). […] Following electrophoresis, the protein bands were transferred onto a PVDF pre-wetted membrane, developed, imaged using trans-white light, and quantified using the Alpha Innotech imaging software (Alpha Ease FC; Chemi-imager 4400) as described previously. […]

Assay [8] deals with RASMCs. Put plainly: Tropoelastin synthesis by RASMCs (Fastin assay of pooled spent medium). The class given is cell-based, rat. Conditions: Example 1, 21-day culture, n=3.
Assay [9] deals with RASMCs. Put plainly: Desmosine content of cell-matrix layers (ELISA). Type of assay: cell-based, rat. Conditions: Example 1. How it is done:
Desmosine content of the cell-matrix layers was determined in expectation that it would correlate with the amounts of crosslinked elastin and serve as an indirect confirmation of the earlier observed biochemical trends, with regard to synthesis of matrix elastin. To assess desmosine content, compounded test and control cell pellets were digested with collagenase type VII (Sigma; 12 h, 37° C.) and re-centrifuged (3000 g, 10 min, 4° C.) to obtain a supernatant (SI) and a pellet. This pellet was digested with pancreatic porcine elastase type III (Sigma; 12 h, 37° C.) to obtain a soluble peptide fraction (SII). Fractions SI and SII were pooled together, acid-hydrolyzed with 6 N HCl (110° C., 16 h), dried under a stream of inert N2, re-constituted in water and the desmosine content determined by ELISA as previously done.

In the case of “TGF-β: transforming growth factor, added at 1 ng/ml”, the LOX protein synthesis result in assay [1] was “enhanced”. Moreover, in assay [2] (Example 3), the “crosslinking of soluble tropoelastin into matrix elastin” value was “significantly enhance”. Further, the “increase of total matrix production” value in [2] is 270±12%. Also, in assay [3] (Example 3, in inverse correlation to the added HA fragment size), the collagen production entry is recorded as “inhibit”.
As to “IGF-1: insulin-like growth factor, added at 500 ng/ml”, the “inhibition of cell proliferation” value in assay [4] (Example 3, 21 days, all cases except in the presence of oligomers and HMWHA) is 50%. Also, the “elastin matrix production compared to control” value in assay [2] (Example 3, IGF-1 only with no HA) is given as “did not upregulate”. For the same molecule, the “increase of total matrix production” value in assay [2] is given as 150±20%.
As for `O=S(=O)([O-])[O-].[Cu+2]` [copper sulfate], the cell proliferation entry in [4] (Example 4, 0.01 M copper sulfate and HA fragments) is “stimulated”. For the same molecule, the “LOX activity vs. controls” value in assay [5] (Example 4, 0.01 M alone) was found to be 1.4±0.2. Besides, the “basal LOX functional activity” value in [5] (Example 4, 0.1 M alone or concurrent with HA fragments (except VLMW HA)) is “no significant effect”. The “total collagen output per ng DNA vs. non-additive controls” value turned out to be 0.5±0.04 fold in assay [3] (Example 4, 0.01 M alone) and 4.1±0.4 fold in assay [3] (Example 4, 0.1 M alone). Also, the “collagen synthesis vs. controls” value in [3] (Example 4, 0.01 M copper sulfate in the presence of oligomers, VLMW and HMW HA) is “consistently suppressed”.
For the molecule `O=S(=O)([O-])[O-].[Na+].[Na+]` [sodium sulfate, reference compound], the “RASMC proliferation vs. controls” value in assay [4] (Example 4, alone, irrespective of the added dose (0.01 and 0.1 M)) is on record as “no effect”. The “total collagen output per ng DNA vs. non-additive controls” value in assay [3] (Example 4, 0.01 M alone) is 1.1±0.13 fold; in assay [3] (Example 4, 0.1 M alone) it was 0.94±0.15 fold.
In the case of `CC(=O)N[C@H]1[C@H](O[C@H]2[C@H](O)[C@@H](O)[C@H](O[C@H]3[C@H](O)[C@@H](CO)OC(O)[C@@H]3NC(C)=O)O[C@@H]2C(=O)O)O[C@H](CO)[C@@H](O)[C@@H]1O[C@@H]1O[C@H](C(=O)O)[C@@H](O)[C@H](O)[C@H]1O` (stereo partly drawn) [pure HA 4-mer], the “% weight loss of cell pellet elastin on elastase digestion” value in [6] (exogenous HA 4 mers) worked out at 35%; in assay [6] (surface-tethered HA 4 mers), 50%. Also, the “normalized tropoelastin band intensity (pixel intensity per ng DNA)” value in [7] is given as 0.15±0. In assay [8], the “tropoelastin output (DNA normalized) relative to respective control cultures” value came out at 1.63±0.06 times. In addition, the “proliferation, times number at 1 day” value in [4] (Example 1, 21 days of culture, n=3) was 1.66±0.05 times number at 1 day. Also, the “DNA normalized matrix elastin output relative to controls” value in [2] (Example 1, 21-day culture) is 2.7±0.3 times. Moreover, the “desmosine amount normalized to DNA and to non-HA controls” value in assay [9] was found to be 4.76±0.10. The “collagen production (DNA normalized) relative to respective controls” value in assay [3] (Example 1, 21-day culture) turned out to be 2.0±0.1 times.
